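Five concentrations, 48 hours, 96-well plates. GI50 marks 50% less growth. At the TGI there is no net growth.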
Columns and labels:
Test in all cases: NCI anticancer screen, dose series, 48 h
UO-31 renal = system: UO-31 renal
OVCAR-8 ovarian = system: OVCAR-8 ovarian
SK-MEL-28 melanoma = system: SK-MEL-28 melanoma
COLO 205 colon = system: COLO 205 colon
SN12C renal = system: SN12C renal
BT-549 breast = system: BT-549 breast
CCRF-CEM leukemia = system: CCRF-CEM leukemia
HS 578T breast = system: HS 578T breast
A498 renal = system: A498 renal
UACC-257 melanoma = system: UACC-257 melanoma
NCI-H23 lung = system: NCI-H23 lung
NCI-H522 lung = system: NCI-H522 lung
MDA-MB-435 = system: MDA-MB-435
SK-MEL-2 melanoma = system: SK-MEL-2 melanoma
CAKI-1 renal = system: CAKI-1 renal
ACHN renal = system: ACHN renal
SW-620 colon = system: SW-620 colon
786-0 renal = system: 786-0 renal
HOP-62 NSCLC = system: HOP-62 NSCLC
HCC-2998 colon = system: HCC-2998 colon
RPMI-8226 leukemia = system: RPMI-8226 leukemia
M14 melanoma = system: M14 melanoma
OVCAR-4 ovarian = system: OVCAR-4 ovarian
LOX IMVI melanoma = system: LOX IMVI melanoma
RXF 393 renal = system: RXF 393 renal
TK-10 renal = system: TK-10 renal
SK-OV-3 ovarian = system: SK-OV-3 ovarian
K-562 leukemia = system: K-562 leukemia
SF-539 CNS = system: SF-539 CNS
KM12 colon = system: KM12 colon
HCT-15 colon = system: HCT-15 colon
NCI-H460 lung = system: NCI-H460 lung
NCI/ADR-RES ovarian = system: NCI/ADR-RES ovarian
MOLT-4 leukemia = system: MOLT-4 leukemia
SNB-75 CNS = system: SNB-75 CNS
HOP-92 NSCLC = system: HOP-92 NSCLC
OVCAR-5 ovarian = system: OVCAR-5 ovarian
IGROV1 ovarian = system: IGROV1 ovarian
UACC-62 melanoma = system: UACC-62 melanoma
PC-3 prostate = system: PC-3 prostate
EKVX NSCLC = system: EKVX NSCLC
SR leukemia = system: SR leukemia
A549 NSCLC = system: A549 NSCLC
SF-268 CNS = system: SF-268 CNS
MALME-3M melanoma = system: MALME-3M melanoma
U251 CNS = system: U251 CNS
T-47D breast = system: T-47D breast
SF-295 CNS = system: SF-295 CNS
OVCAR-3 ovarian = system: OVCAR-3 ovarian
DU-145 prostate = system: DU-145 prostate
SK-MEL-5 melanoma = system: SK-MEL-5 melanoma
HT29 colon = system: HT29 colon
NCI-H226 lung = system: NCI-H226 lung
HCT-116 colon = system: HCT-116 colon
HL-60(TB) leukemia = system: HL-60(TB) leukemia
MDA-MB-231 breast = system: MDA-MB-231 breast

## C=C1C(=O)O[C@H]2[C@H]1CC/C(COC(=O)NCCCCNC(=O)OC/C1=C/CC[C@@]3(C)O[C@H]3[C@H]3OC(=O)C(=C)[C@@H]3CC1)=C\CC[C@@]1(C)O[C@@H]21
UO-31 renal
  GI50: 7.61 µM
  TGI: 20.9 µM
OVCAR-8 ovarian
  GI50: 2180 nM
  TGI: 8.26 µM
SK-MEL-28 melanoma
  GI50: 529 nM
  TGI: 2300 nM
COLO 205 colon
  GI50: 466 nM
  TGI: 1800 nM
SN12C renal
  GI50: 2750 nM
  TGI: 10.1 µM
BT-549 breast
  GI50: 1600 nM
  TGI: 3.63 µM
CCRF-CEM leukemia
  GI50: 272 nM
  TGI: 845 nM
HS 578T breast
  GI50: 2540 nM
  TGI: 8.14 µM
A498 renal
  GI50: 6.36 µM
  TGI: 18.9 µM
UACC-257 melanoma
  GI50: 1680 nM
  TGI: 4.99 µM
NCI-H23 lung
  GI50: 2180 nM
  TGI: 5.54 µM
NCI-H522 lung
  GI50: 167 nM
  TGI: 375 nM
MDA-MB-435
  GI50: 1240 nM
  TGI: 3.41 µM
SK-MEL-2 melanoma
  GI50: 1770 nM
  TGI: 4.89 µM
CAKI-1 renal
  GI50: 10.8 µM
  TGI: 23 µM
ACHN renal
  GI50: 3.44 µM
  TGI: 12.9 µM
SW-620 colon
  GI50: 586 nM
  TGI: 2040 nM
786-0 renal
  GI50: 1990 nM
  TGI: 4.26 µM
HOP-62 NSCLC
  GI50: 3.84 µM
  TGI: 14 µM
HCC-2998 colon
  GI50: 2350 nM
  TGI: 4.78 µM
RPMI-8226 leukemia
  GI50: 547 nM
  TGI: 3.08 µM
M14 melanoma
  GI50: 1970 nM
  TGI: 4.82 µM
OVCAR-4 ovarian
  GI50: 1770 nM
  TGI: 8.53 µM
LOX IMVI melanoma
  GI50: 519 nM
  TGI: 1920 nM
RXF 393 renal
  GI50: 1440 nM
  TGI: 3.36 µM
TK-10 renal
  GI50: 1610 nM
  TGI: 4.12 µM
SK-OV-3 ovarian
  GI50: 12.7 µM
  TGI: 25.3 µM
K-562 leukemia
  GI50: 665 nM
  TGI: 10.4 µM
SF-539 CNS
  GI50: 1550 nM
  TGI: 3.71 µM
KM12 colon
  GI50: 3.18 µM
  TGI: 10.5 µM
HCT-15 colon
  GI50: 5.61 µM
  TGI: 20.8 µM
NCI-H460 lung
  GI50: 4.61 µM
  TGI: 18 µM
NCI/ADR-RES ovarian
  GI50: 37.7 µM
  TGI: > 100 µM
MOLT-4 leukemia
  GI50: 1470 nM
  TGI: 4.15 µM
SNB-75 CNS
  GI50: 2190 nM
  TGI: 16.5 µM
HOP-92 NSCLC
  GI50: 287 nM
  TGI: 1060 nM
OVCAR-5 ovarian
  GI50: 1750 nM
  TGI: 3.69 µM
IGROV1 ovarian
  GI50: 3.32 µM
  TGI: 12.4 µM
UACC-62 melanoma
  GI50: 753 nM
  TGI: 2500 nM
PC-3 prostate
  GI50: 2550 nM
  TGI: 8.05 µM
EKVX NSCLC
  GI50: 3.69 µM
  TGI: 13.5 µM
SR leukemia
  GI50: 549 nM
  TGI: 3.51 µM
A549 NSCLC
  GI50: 8.01 µM
  TGI: 23.1 µM
SF-268 CNS
  GI50: 3.18 µM
  TGI: 12.6 µM
MALME-3M melanoma
  GI50: 452 nM
  TGI: 2190 nM
U251 CNS
  GI50: 2940 nM
  TGI: 9.83 µM
T-47D breast
  GI50: 1510 nM
  TGI: 4.17 µM
SF-295 CNS
  GI50: 13 µM
  TGI: 27.4 µM
OVCAR-3 ovarian
  GI50: 693 nM
  TGI: 2010 nM
DU-145 prostate
  GI50: 3.21 µM
  TGI: 10.5 µM
SK-MEL-5 melanoma
  GI50: 3.33 µM
  TGI: 11.8 µM
HT29 colon
  GI50: 605 nM
  TGI: 2050 nM
NCI-H226 lung
  GI50: 11.4 µM
  TGI: 30.5 µM
HCT-116 colon
  GI50: 1120 nM
  TGI: 2630 nM
HL-60(TB) leukemia
  GI50: 256 nM
  TGI: 1080 nM
MDA-MB-231 breast
  GI50: 1530 nM
  TGI: 3.24 µM
